Experimental data from patent US8796249B2, “TGR5 modulators and methods of use thereof” (Intercept Pharmaceuticals, Inc., priority 2008, dated 2014).
Where a name gives a salt, the structure may show the parent alone.

Assays:
pancreatic esterases = experiment: In vitro metabolic stability in simulated duodenal/pancreatic fluid; type: in vitro ADME, porcine
Protocol: This study has been performed for 2A since it contains an ester bond in the side chain and the aim was to verify the stability in presence of esterase enzymes like present in duodenal and pancreatic juice. Simulated pancreatic fluid was prepared by dissolving 10 g/L Pancreatin (Sigma P8096: pancreatin from porcine pancreas, activity 1× USP specifications) in 0.05M phosphate buffer, pH=7.2±0.1. Then, 4-mL aliquots of the simulated pancreatic fluid were added of […] of the studied BA and incubated for different times (0, 30, 60, 90, 120, 180 and 240 min) at 37° C. After incubation, a 2-mL aliquot of each solution was added with 2 mL of 0.1M NaOH and subjected to bile acids extraction by SPE and analysis by thin-layer chromatography and mass spectrometry as described above. […] Olive oil was used as a reference as reported in the USP protocol.

[1] = Biliary secretion, bile flow and metabolism in bile-fistula rat after duodenal (id) and femoral (iv) infusion; type: in vivo; details: for choleretic effect (bile flow): bile fistula rat
Protocol: To evaluate the mode and efficiency of the intestinal absorption the analogues were administered both intravenously (femoral infusion) and orally (duodenal infusion) at the same dose and their biliary secretion rate was evaluated in bile fistula rat model. The differences in the area under the curve of the biliary secretion vs time between iv and id administration account of its intestinal absorption and give information about its biovailability.
The bile fistula rat model was developed at the University of Bologna Lab facilities. The compound 3A was administered at a dose of 1 μmol/kg/min (1 hour infusion) to a rat group via duodenal infusion (id). Rat have a bile fistula to collect bile samples at different times before and during the infusion. For duodenal infusion experiment 3 rats (250±10 g) were treated. Bile samples were collected every 15 minutes for four hours. In addition, 3 control rats were treated with saline solution under the same conditions for times and sampling (duodenal control rats).
Duodenal infusion starts after 30 min baseline bile collection and continues for one hour.
For femoral infusion experiment, 3 rats were treated. […] Femoral infusion starts after 75 minutes of steady-state and continues for 60 min. Bile samples were collected every 15 minutes for four hours. In addition, 3 rats were treated with saline solution under the same conditions for times and sampling (femoral control rats).
Rat bile samples were brought to room temperature, briefly stirred, and diluted 1:100 v/v (bile samples from duodenal orinfusion) and 1:100 or 1:200 v/v (bile samples from femoral infusion) with 15 mM ammonium acetate buffer (pH=5.0):acetonitrile=70:30 (v/v). Final solution was transferred in autosampler vials, and 10 μL was injected into the chromatographic column.
Bile rat samples were analyzed by liquid chromatography-tandem mass spectrometry (HPLC-MS/MS) using electrospray (ESI) source in negative ionization mode. For liquid chromatography a Waters Alliance 2695 separation module coupled with autosampler was used. Autosampler was maintained at 7° C. Separation was performed on a Synergi Hydro-RP C18 column (150×2.0 mm i.d., 4 μm particle size), protected by a SecurityGuard ODS 4×2.0 mm i.d. precolumn, both supplied from Phenomenex. […]. Nitrogen was used as nebulizer gas at 90 L/h flow rate and as desolvation gas at 930 L/h. Ion source block and desolvation temperatures were set respectively to 80° C. and 180° C. Capillary voltage was 3.0 kV. MassLynx software version 4.0 was used for data acquisition and processing. In addition, using mass spectrometry both in single MS or tandem MS/MS configuration experiments were performed to identify metabolites.
A 5-point calibration curve was daily prepared and injected in duplicate. Calibration samples were obtained in the 0.1 to 25 μmol/L concentration range prepared in mobile phase. Linear calibration curve parameters were obtained from the plot of the analyte peak area versus analyte concentration using a least squares regression analysis (weight=1/x^2). Correlation coefficients were ≧0.989.
The data refer to the secretion rate of the analogues recovered in bile as such after duodenal and femoral infusion at a dose of 1 umol/Kg/min. Major and minor metabolites are reported later.
For a preliminary screening the search of the possible metabolites has been performed on the basis of the expected compounds according to previous experiments and data and to the structure and physicochemical properties of the studied analogues.

[2] = rat, duodenal infusion 1 umol/Kg/min 1 h, time 120 min
[3] = rat, duodenal infusion 1 umol/Kg/min 1 h, time 150 min
[4] = rat, duodenal infusion 1 umol/Kg/min 1 h, time 180 min
[5] = rat, duodenal infusion 1 umol/Kg/min 1 h, time 210 min
[6] = rat, duodenal infusion 1 umol/Kg/min 1 h, time 240 min
[7] = rat, duodenal infusion 1 umol/Kg/min 1 h, time 270 min
[8] = rat, duodenal infusion 1 umol/Kg/min 1 h, time 300 min
[9] = rat, femoral infusion 1 umol/Kg/min 1 h, time 90 min
[10] = rat, femoral infusion 1 umol/Kg/min 1 h, time 120 min
[11] = rat, femoral infusion 1 umol/Kg/min 1 h, time 150 min
[12] = rat, femoral infusion 1 umol/Kg/min 1 h, time 180 min
[13] = rat, femoral infusion 1 umol/Kg/min 1 h, time 210 min
[14] = rat, femoral infusion 1 umol/Kg/min 1 h, time 240 min

SMILES: CCC1C(O)C2C3CCC(C(C)CC(C)OS(=O)(=O)O)C3(C)CCC2C2(C)CCC(O)CC12 [Compound 2A, 3α,7α,23-trihydroxy-6α-ethyl-23(S)-methyl-24-nor-5β-cholan-23-sulfate Sodium Salt]
- metabolic stability in simulated pancreatic fluid (pancreatic esterases; 10 g/L pancreatin, pH 7.2, 37° C., up to 240 min): very stable
- hydrolysis of ester bond (sulphate) by pancreatic esterases (pancreatic esterases; simulated pancreatic fluid): not hydrolyzed

SMILES: CC[C@H]1[C@@H](O)[C@@H]2[C@H](C[C@H](O)[C@]3(C)[C@@H]([C@H](C)CCCS(=O)(=O)[O-])CC[C@@H]23)[C@@]2(C)CC[C@@H](O)C[C@@H]12.[Na+] [Compound 3A, 3α,7α,12α-trihydroxy-6α-ethyl-5β-cholan-24-sulfonate Sodium Salt]
- choleretic effect (bile flow) ([1]; duodenal infusion (id) 1 μmol/kg/min, 1 hour): moderate choleretic effect
- choleretic effect (bile flow) ([1]; femoral infusion (iv), 60 min): moderate choleretic effect
- hepatic and intestinal metabolism ([1]; bile-fistula rat, iv and id): not metabolized by the liver or by the intestine
- intestinal absorption ([1]; rat, after id administration, recovery in bile much lower than after iv): poorly absorbed by the intestine
- recovery in bile ([1]; rat, after iv administration): almost completely recovered in bile
- Conc. in bile [1, 2]: 370 µM
- Secretion (biliary) [1, 2]: 0.026 µmol/kg/min
- Conc. in bile [1, 3]: 900 µM
- Secretion (biliary) [1, 3]: 0.079 µmol/kg/min
- Conc. in bile [1, 4]: 1300 µM
- Secretion (biliary) [1, 4]: 0.101 µmol/kg/min
- Conc. in bile [1, 5]: 950 µM
- Secretion (biliary) [1, 5]: 0.061 µmol/kg/min
- Conc. in bile [1, 6]: 700 µM
- Secretion (biliary) [1, 6]: 0.043 µmol/kg/min
- Conc. in bile [1, 7]: 580 µM
- Secretion (biliary) [1, 7]: 0.039 µmol/kg/min
- Conc. in bile [1, 8]: 510 µM
- Secretion (biliary) [1, 8]: 0.029 µmol/kg/min
- Conc. in bile [1, 9]: 2600 µM
- Secretion (biliary) [1, 9]: 0.105 µmol/kg/min
- Conc. in bile [1, 10]: 7300 µM
- Secretion (biliary) [1, 10]: 0.588 µmol/kg/min
- Conc. in bile [1, 11]: 7500 µM
- Secretion (biliary) [1, 11]: 0.463 µmol/kg/min
- Conc. in bile [1, 12]: 6200 µM
- Secretion (biliary) [1, 12]: 0.363 µmol/kg/min
- Conc. in bile [1, 13]: 3400 µM
- Secretion (biliary) [1, 13]: 0.247 µmol/kg/min
- Conc. in bile [1, 14]: 1000 µM
- Secretion (biliary) [1, 14]: 0.045 µmol/kg/min
